Key:
Rat Paw Edema = assay: Rat Paw Edema; format: in vivo; settings: for % Inhibition: one dose per compound (Dose column, mg/kg): Nabumetone 79.0, 6-MNA 75.0, Indomethacin 10.0, Example 1 94.3, Example 2 121.0, Example 3 94.9, Example 4 121.0
[1] = oral administration; cited from earlier work

Compound	melting point	ED50 (Rat Paw Edema) [mg/kg]	% Inhibition (Rat Paw Edema) [%]	share of orally administered nabumetone transferred in vivo into 6MNA [1]
COc1ccc2cc(CC(=O)OCC(C)=O)ccc2c1 [Example 1, (6-methoxy-naphthalen-2-yl)-acetic acid 2-oxo-propyl ester]	122 to 124 °C	33.9	65	
COc1ccc2cc(CC(=O)OCCOCCO[N+](=O)[O-])ccc2c1 [Example 2, (6-Methoxy-naphthalen-2-yl)-acetic acid 2-(2-nitrooxy-ethoxy)-ethyl ester]			57	
COc1ccc2cc(CC(=O)OCC(=O)O)ccc2c1 [Example 3, (6-methoxy-naphthalen-2-yl)-acetic acid carboxymethyl ester]	190 to 192 °C (dec.)		58	
CCOC(=O)COC(=O)Cc1ccc2cc(OC)ccc2c1 [Example 4, (6-methoxy-naphthalen-2-yl)-acetic acid ethoxycarbonylmethyl ester]	38 to 40 °C		38	
COc1ccc2cc(CC(=O)O)ccc2c1 [Example 6-MNA, 6-methoxy-2-naphthylacetic acid]			45	
COCCNC(=O)Cc1ccc2cc(OC)ccc2c1 [Example 8, N-(2-methoxy-ethyl)-2-(6-methoxy-naphthalen-2-yl)-acetamide]	129 °C			
COc1ccc2cc(CC(N)=O)ccc2c1 [Example 10, 2-(6-methoxy-naphthalen-2-yl)-acetamide]	234 to 236 °C			
COc1ccc2c(c1)c(CC(=O)O)c(C)n2C(=O)c1ccc(Cl)cc1 [Indomethacin, reference compound]			51	
COc1ccc2cc(CCC(C)=O)ccc2c1 [Nabumetone, nabumetone, reference compound]		35.9	60	about 35%
